# Results from patent US20250275944A1, “RELATIVE UNDERSUPPLY OF AN AMYLOID BETA AGGREGATION INHIBITOR FOR IMPROVED DETOXIFYING EFFECTS” (Galimedix Therapeutics Inc, priority 2022, published 2025).
# Entries after “also recorded” stand apart in the source; their conditions may differ. Non-standard residues stand in square brackets, D forms with d. Residues, ends and D or L forms follow the SMILES beside them. Aib = CC(C)(N)C(=O)O
# Columns and labels:
# oligomeric Aβ1-42 = target: T1, oligomeric Aβ1-42 (Homo sapiens, UniProt P05067); experiment: In vivo LTP in anesthetized rats after i.c.v. oligomeric Aβ1-42; parameters: species or system rat; settings: for PS amplitude 80-90 min after LTP induction: Aβ1-42 alone 138.1±4.1, vehicle 179.2±8.7
# T1 construct: Amyloid beta Aβ1-42 has been injected into brain ventricles at a concentration that strongly suppresses LTP; host or cells: peptide solution injected into anesthetized rats
# T1 sequence (P05067 672-713 limits assumed): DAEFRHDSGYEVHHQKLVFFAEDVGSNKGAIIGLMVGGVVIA
# Description: FIG. 3 Represents a graphical illustration of compound (1)'s dose-dependent effects on in vivo LTP in anesthetized rats at very low concentrations. Given are normalized LTP of population spike (PS) amplitude at 80-90 min post theta burst stimulation (TBS). Compound (1) has been administered s.c. at dose of 0.08 mg/kg, 0.4 mg/kg, and 2.0 mg/kg. Amyloid beta Aβ1-42 has been injected into brain ventricles at a concentration that strongly suppresses LTP (black column). […] The aim of this experiment was to evaluate the dose-dependent effects of compound (1) on in vivo LTP in anesthetized rats at very low concentrations. Compound (1) has been administered s.c. at dose of 0.08 mg/kg, 0.4 mg/kg, and 2.0 mg/kg. Amyloid beta Aβ1-42 has been injected into brain ventricles at a concentration that strongly suppresses LTP. […] In animals subject to intracerebroventricular (i.c.v.) injection of 6 μL oligomeric Aβ1-42 solution (1.67 mM) significant deficits in LTP were observed. (FIG. 3). At the end of the recording period, 80-90 min after LTP induction, the PS amplitude following i.c.v. administration of oligomeric Aβ1-42 measured 138.1±4.1% of baseline (n=18), compared to 179.2±8.7% in PBS-injected animals (n=12). In animals subjected to i.c.v injection of 6 μL oligomeric Aβ1-42, 3 different s.c. doses of compound (1), namely 0.08, 0.4 and 2 mg/kg, were administrated before i.c.v. injection of oligomeric Aβ1-42. […] At the end of the recording period, 80-90 min after LTP induction, the PS amplitude following s.c. administration of compound (1) and i.c.v. administration of oligomeric Aβ1-42 measured 170.0±11.9% of baseline (n=7) for the 2 mg/kg dose, 174.7±16.0% of baseline (n=6) for the 0.4 mg/kg dose, and 139.6±13.1% of baseline (n=4) for the 0.08 mg/kg dose, compared to 179.2±8.7% in vehicle-treated controls (n=12) and 138.1±4.1% i.c.v. oligomeric Aβ1-42-injected animals (n=18).
# Aβ1-42 oligomers = target: T2, Aβ1-42 oligomers (Homo sapiens, UniProt P05067); experiment: In vitro LTP in hippocampal brain slices superfused with 50 nM Aβ1-42; parameters: species or system mice; settings: for effect on Aβ1-42 toxicity in in vitro LTP: 50 nM Aβ1-42; for Relative effect size (blocking Aβ1-42 toxicity): control LTP = 100%, Aβ1-42 alone = 0%
# T2 construct: host or cells: peptide added to the superfusion solution of hippocampal slices
# T2 sequence (P05067 672-713 limits assumed): as above
# Description: FIGS. 4A-B. FIG. 4A Illustrates plots from in vitro LTP experiments using rat brain slices that were superfused at 23° C. with 50 nM Aβ1-42 and/or with 10 nM compound (1). The compound (1) solution was added for 90 min before HFS was delivered in the first input (dark grey circles). […] To ensure the validity of the Aβ1-42-mediated effect, interleaved experiments with Aβ1-42 (50 nM, closed circles, n=12) were additionally performed in separate slices. […] Representative field excitatory postsynaptic potentials ([…]) are shown on top. FIG. 4B Represents a graphical illustration of compound (1)'s dose-dependent effects on in vitro LTP in rat brain slices based on LTP experiments shown in FIG. 4A. Toxic Aβ1-42 oligomers formed from 50 nM amyloid beta Aβ1-42 monomers block the LTP response almost entirely (black column). […] This refutes the previous scientific status, which called for an excess of the detoxifying agent. Data are shown as means of 5 experiments (n=5)±standard deviations. For the long-term potentiation (LTP) experiments brain slices from 2 months old mice were used. Transverse hippocampal slices (350 μm thick) were obtained after decapitation under isoflurane-anesthesia. All slices were placed in a holding chamber for at least 60 min and were then transferred to a super fusing chamber for extracellular recordings. The flow rate of the solution through the chamber was 4 ml/min. […] All experiments were performed at room temperature. Aβ1-42 stock solution in DMSO was added to the bath solution to give a final concentration of 50 nM. Extracellular recordings of field excitatory postsynaptic potentials (fEPSPs) were obtained from the dendritic region of the CA1 region of the hippocampus using glass micropipettes filled with superfusion solution. For all recordings both stimulating electrodes were used to utilize the input specificity of LTP and thereby allow the measurement of an internal control within the same slice. Steady baseline recordings were made for at least 30 minutes before application of tetanic stimuli. For LTP induction, high-frequency stimulation (HFS) conditioning pulses (100 Hz/1 s; 4-5 V) were applied to the Schaffer collateral commissural pathway via two independent inputs. Before inducing LTP, Aβ1-42 has been applied for 90 min. HFS was delivered from one of the electrodes under conditions in the presence of Compound (1) and potentiation of the responses was monitored for at least 60 min after the tetanus. Either Aβ1-42 was then applied via the bath solution for 90 min before attempting to induce LTP in the second input following HFS delivered via the second electrode. Amplified fEPSPs were filtered (3 kHz), digitized (15 kHz), measured and plotted (FIG. 4A). Measurements of the slope of the fEPSP were taken between 20% and 80% of the peak amplitude. Slopes of fEPSPs were normalized with respect to the 20 min control period before tetanic stimulation. Compound (1) was used at various concentrations in these LTP experiments. […] FIG. 4B summarizes the effects of different compound (1) concentrations leading to different stoichiometric Aβ1-42/compound (1) ratios (10:1, 2:1, 1:5). The LTP signals (fEPSP potentiation) calculated as the average of the last 50-60 mins after HFS are presented as a bar diagram. […] The control experiment is defined as 100% normalized LTP response and the toxic effect of 50 nM Aβ1-42 oligomers is defined as 0% normalized LTP change. Using the usual stoichiometric excess for compound (1), namely 500 nM or 100 nM, leads to a weak detoxifying effect of 40.2% and 34.7%, respectively.
compound,measurement,setting,value
"CC(C)(NC(=O)[C@H](N)Cc1c[nH]c2ccccc12)C(N)=O [compound (1), (2R)-2-amino-N-(1-carbamomyl-1-methlyethyl)-3-(1H-indol-3-yl) propanamide] (H-[dW]-[Aib]-NH2)",effect on Aβ1-42-suppressed in vivo LTP,oligomeric Aβ1-42; 0.08 mg/kg s.c.,loss of the pharmacological effect
same,PS amplitude 80-90 min after LTP induction,"oligomeric Aβ1-42; 0.08 mg/kg s.c. + i.c.v. oligomeric Aβ1-42, n=4",139.6±13.1 % of baseline
same,effect on Aβ1-42-suppressed in vivo LTP,oligomeric Aβ1-42; 0.4 mg/kg s.c.,at least as potent efficacy on LTP; also recorded: fully restored LTP signal; also recorded: brought post-TBS responses towards those observed in control animals
same,PS amplitude 80-90 min after LTP induction,"oligomeric Aβ1-42; 0.4 mg/kg s.c. + i.c.v. oligomeric Aβ1-42, n=6",174.7±16.0 % of baseline
same,effect on Aβ1-42-suppressed in vivo LTP,oligomeric Aβ1-42; 2 mg/kg s.c.,brought post-TBS responses towards those observed in control animals; also recorded: normalizes the LTP signal
same,PS amplitude 80-90 min after LTP induction,"oligomeric Aβ1-42; 2 mg/kg s.c. + i.c.v. oligomeric Aβ1-42, n=7",170.0±11.9 % of baseline
same,effect on Aβ1-42 toxicity in in vitro LTP,Aβ1-42 oligomers; 10 nM compound (1),best prevented the detrimental effect of 50 nM Aβ1-42 on hippocampal LTP; also recorded: able to prevent LTP blockade; also recorded: blocks Aβ1-42 toxicity almost completely
same,Relative effect size (blocking Aβ1-42 toxicity),"Aβ1-42 oligomers; 10 nM compound (1), 50 nM Aβ1-42, ratio 1:5",88.1%
same,LTP induction in presence of compound alone,"Aβ1-42 oligomers; 10 nM compound (1), 90 min before HFS, no Aβ1-42",allowed the induction of LTP
same,effect on Aβ1-42 toxicity in in vitro LTP,Aβ1-42 oligomers; 100 nM compound (1),only partially alleviate the toxic effect of Aβ1-42
same,Relative effect size (blocking Aβ1-42 toxicity),"Aβ1-42 oligomers; 100 nM compound (1), 50 nM Aβ1-42, ratio 2:1",34.7%
same,Relative effect size (blocking Aβ1-42 toxicity),"Aβ1-42 oligomers; 100 nM compound (1), 50 nM Aβ1-42, ratio 2:1, listed as Compound (1)",34.7%
same,effect on Aβ1-42 toxicity in in vitro LTP,Aβ1-42 oligomers; 500 nM compound (1),only partially alleviate the toxic effect of Aβ1-42
same,Relative effect size (blocking Aβ1-42 toxicity),"Aβ1-42 oligomers; 500 nM compound (1), 50 nM Aβ1-42, ratio 10:1",40.2%
same,Relative effect size (blocking Aβ1-42 toxicity),"Aβ1-42 oligomers; 500 nM compound (1), 50 nM Aβ1-42, ratio 10:1, listed as Compound (1)",40.2%
same,detoxifying effect in undersupply compared to stoichiometric excess,"Aβ1-42 oligomers; 10-fold undersupply (ratio 1:10) as worded, refers to Table 1",more than double as strong
same,molecules of Aβ1-42 detoxified by 1 molecule of compound (1),Aβ1-42 oligomers; efficacy at 10 nM vs 50 nM Aβ1-42,5
